The values below are quoted from earlier work in PubChem BioAssay AID1259410 (Chemical Carcinogenesis Research Information System (CCRIS), 2018).

The series deals with rodent tumor promotion studies, tumor incidence. Briefly: CCRIS tumor promotion studies. As to conditions: Doses [Promoter]: 0, Route [Carcinogen]: SUBCUTANEOUS, Route [Promoter]: ORAL, Species: RAT, Strain/Sex: F344/MALE.

On to `Cc1cccc(C)c1NC1=NCCCS1`, for which the outcome runs as follows: (Carcinogen: N-BIS(2-HYDROXYPROPYL)NITROSAMINE, 53609-64-6, Doses [Carcinogen]: 2,400 MG/KG ONCE, 1,000 PPM IN DIET FOR 52 WK BEGINNING 1 WK POST CARCINOGEN DOSE (STUDY DURATION: 28 WK)) “thyroid gland: follicular cell adenoma or carcinoma”; (Carcinogen: N-NITROSOBIS(2-HYDROXYPROPYL)AMINE [53609-64-6], Doses [Carcinogen]: 2400 MG/KG IN SALINE ONCE, 250, 500, 1000 PPM IN DIET FOR 26 WK, BEGINNING 1 WK AFTER CARCINOGEN DOSE (STUDY DURATION: 27 WK), 250, 500, 1000 PPM IN DIET FOR 26 WK, BEGINNING 1 WK AFTER CARCINOGEN DOSE (STUDY DURATION: 27 WK)) “thyroid gland: follicular cell hyperplasia, follicular cell adenoma”; (Carcinogen: N-NITROSOBIS(2-HYDROXYPROPYL)AMINE, 53609-64-6, Doses [Carcinogen]: 2400 MG/KG IN SALINE ONCE, 1,000 PPM IN FEED FOR 52 WK BEGINNING 1 WK POST CARCINOGEN TREATMENT (STUDY DURATION: 53 WK)) “thyroid: adenoma and carcinoma”.
